Data reported in patent publication US10765644B2, “Methods for the treatment of hepatitis C” (priority 2015, dated 2020).
pEC50: −log10 of the molar value.

Tests used:
[1] = system: cell culture-derived HCV (HCVcc); experiment: microbe, parasite or virus in culture; assay type: cell-based, hepatitis C virus
Procedure: (§1) Huh7.5 cells were grown in Dulbecco's modified essential media (DMEM), 10% fetal bovine serum (FBS), 1% penicillin-streptomycin (pen-strep), 1% Non-essential amino acids (NEAA) in a 5% CO2 incubator at 37° C. Huh7.5 cells were seeded at 1×10^4 cells per well into 96-well plates according to Southern Research Institute standard format. Test articles were serially diluted with DMEM plus 5% FBS. The diluted compound in the amount of 50 μl was mixed with equal volume of cell culture-derived HCV (HCVcc), then applied to appropriate wells in the plate. Human interferon alpha-2b (rIFNα-2b) and/or Sofosbuvir were included as a positive control. After 72 hr incubation at 37° C., the cells were lysed for measurement of luciferase activity using Renilla Luciferase Assay System (Promega) according to manufacturer's instruction. The number of cells in each well were determined by CytoTox-1 reagent (Promega). Test articles were tested at 6 serial dilutions in triplicate to derive, if applicable, EC50 and EC90 (concentration inhibiting HCVcc infectivity by 50% and 90%, respectively), CC50 (concentration decreasing cell viability by 50%) and SI (selectivity index: CC50/EC50) values (Table 1).

HCV GT1B replicon = experiment: HCV replicon assay (antiviral, luciferase / qRT-PCR endpoint); assay type: cell-based, hepatitis C virus
Procedure: Stable HCV replicons of different genotypes may be used for anti-HCV evaluation.
The HCV replicon antiviral evaluation assay examined the effects of compounds at six serial dilutions. Human interferon alpha-2b (rIFNα-2b) and/or Sofosbuvir were included in each run as a positive control compound.
(§2) Briefly, the replicon cells were plated at 5,000 cells/well into 96-well plates that were dedicated for the analysis of cell numbers (cytotoxicity) or antiviral activity. On the following day, samples were diluted with assay media and added to the appropriate wells. Cells were processed 72 hours later when the cells were still sub-confluent. For the luciferase endpoint assay, HCV replicon levels were assessed as replicon-derived Luc activity. The concentration of drug that reduced cell viability was assessed by the fluorometric CytoTox-1 cell proliferation assay (Promega), (expressed as cell numbers). For the qRT-PCR/TaqMan assay, total RNA was extracted from the replicon cells using RNeasy 96 kit (Qiagen) according to the manufacturer's protocol. Real-time RTPCR/TaqMan assays were performed to measure copy numbers of the replicon RNA and cellular ribosomal RNA. Where applicable EC50 (concentration inhibiting HCV replicon by 50%), EC90 (concentration inhibiting HCV replicon by 90%), CC50 (concentration decreasing cell viability by 50%), CC90 (concentration decreasing cell viability by 90%) and SI (selectivity indices: CC50/EC50 and CC90/EC90) values were derived.

[2] = HCV replicon assay, cytotoxicity (CytoTox-1 cell proliferation assay); assay type: cell-based; settings: HCV replicon cells, In vitro HCV replicon assay, post infection, read-out: CC50 (concentration decreasing cell viability by 50%)
Procedure: as §2

in vitro = assay type: cell-based; settings: human
Procedure: as §1

CC[C@H](c1ccc(O)cc1)[C@@H](CC)c1ccc(O)cc1 [Hexestrol, meso 3,4-bis(4-hydroxyphenyl)hexane]
anti-Hepatitis C activity (in words) ([1]; Hepatitis C viral infectivity assay): significant anti-Hepatitis C activity | pEC50 ([1]; Hepatitis C virus, Huh7.5, 72 h, read-out: EC50 (concentration inhibiting HCVcc infectivity by 50%)): 5.55 | Selectivity index (CC50/EC50) ([1]; In vitro HCVcc assay): 14.2 | anti-Hepatitis C activity (in words) (HCV GT1B replicon; HCV replicon assay): significant anti-Hepatitis C activity | pEC50 (HCV GT1B replicon; Hepatitis C virus, GT1B, 72 h, read-out: EC50 (concentration inhibiting HCV replicon by 50%)): 4.96 | Selectivity index (CC50/EC50) (HCV GT1B replicon; In vitro HCV replicon assay): 2.51 | CC50 at 72 h [2]: 27.4 µM | CC50 at 72 h (in vitro): 50.4 µM
